# Measurements taken from paper PMC9146228, “Bioactivity of Novel Pyrazole-Thiazolines Scaffolds against Trypanosoma cruzi: Computational Approaches and 3D Spheroid Model on Drug Discovery for Chagas Disease” (Pharmaceutics, 2022).
# Test system: T. cruzi (Dm28c-Luc) trypomastigotes
# Test: microbe, parasite or virus in culture
# Assay type: cell-based, Trypanosoma cruzi
# Conditions: Trypanosoma cruzi, 24 h, Dm28c-Luc, 24 h, mean ± SD; read-out: Trypanocidal Activity Trypomastigotes IC50
# Experimental: The screening assays were performed with T. cruzi clone Dm28c (TcI) genetically modified to express luciferase gene (Dm28c-Luc), kindly provided by Dr. Cristina Henriques. Trypomastigotes were isolated from T. cruzi-infected Vero cell monolayers (10:1 parasites/host cell ratio). On the 4th day post-infection (dpi), free trypomastigotes in the culture supernatant were harvested, and the number of parasites/mL was quantified in a Neubauer chamber.
# The trypanocidal activity of the pyrazole-thiazoline derivatives was evaluated against trypomastigote and intracellular amastigote forms of T. cruzi (Dm28c-Luc). Tissue-derived trypomastigotes (1 × 10^6 parasites/well) were incubated with pyrazole-thiazoline derivatives and Bz in different concentrations (0.41–100 µM) for 24 h at 37 °C in a humidified atmosphere and 5% CO2. The parasite viability was determined by the addition of luciferin (300 µg/mL), followed by luminescence detection on the GloMax microplate reader (Promega Corporation, Madison, WI, USA).
# (§1) After 72 h of treatment, luciferin (300 µg/mL) was added to the culture, and the viability of the parasites was assessed by reading the luminescent signal on the GloMax reader (Promega Corporation, Madison, WI, USA). Controls were also performed in non-toxic concentrations of DMSO (≤ 1%). The concentration that reduces the number of viable parasites by 50% (IC50) or 90% (IC90) was calculated by linear regression. The selectivity index (SI) was calculated as CC50/IC50 for each parasite form.
row,Compound,IC50 [µM]
1,"Fc1cccc(-n2cc(C3=NCCS3)cn2)c1 [Compound 2h, 2-(1-(3-fluorophenyl)-1H-pyrazol-4-yl)-4,5-dihydrothiazole]",9.8 ± 1.5
2,"Clc1cccc(-n2cc(C3=NCCS3)cn2)c1Cl [Compound 2l, 2-(1-(2,3-dichlorophenyl)-1H-pyrazol-4-yl)-4,5-dihydrothiazole]",25.8 ± 1.9
3,"COc1ccc(-n2ncc(C3=NCCS3)c2N)cc1 [Compound 1k, 2-(5-amino-1-(4-methoxyphenyl)-1H-pyrazol-4-yl)-4,5-dihydrothiazole]",12 ± 3.5
4,"COc1ccc(-n2cc(C3=NCCS3)cn2)cc1 [Compound 2k, 2-(1-(4-methoxyphenyl)-1H-pyrazol-4-yl)-4,5-dihydrothiazole]",3.1 ± 0.3

# Same assay, conditions: Trypanosoma cruzi; Dm28c-Luc, 24 h, mean ± SD; read-out: Trypanocidal Activity Trypomastigotes IC90
row,Compound,IC90 [µM]
1,"Fc1cccc(-n2cc(C3=NCCS3)cn2)c1 [Compound 2h, 2-(1-(3-fluorophenyl)-1H-pyrazol-4-yl)-4,5-dihydrothiazole]",36.3 ± 3.2
2,"Clc1cccc(-n2cc(C3=NCCS3)cn2)c1Cl [Compound 2l, 2-(1-(2,3-dichlorophenyl)-1H-pyrazol-4-yl)-4,5-dihydrothiazole]",> 100
3,"COc1ccc(-n2ncc(C3=NCCS3)c2N)cc1 [Compound 1k, 2-(5-amino-1-(4-methoxyphenyl)-1H-pyrazol-4-yl)-4,5-dihydrothiazole]",93.4 ± 5.5
4,"COc1ccc(-n2cc(C3=NCCS3)cn2)cc1 [Compound 2k, 2-(1-(4-methoxyphenyl)-1H-pyrazol-4-yl)-4,5-dihydrothiazole]",36.1 ± 2.6

# Same assay, conditions: selectivity index vs Vero cells
row,Compound,Trypomastigotes SI (CC50 of Vero cells/IC50)
1,"Fc1cccc(-n2cc(C3=NCCS3)cn2)c1 [Compound 2h, 2-(1-(3-fluorophenyl)-1H-pyrazol-4-yl)-4,5-dihydrothiazole]",3.8
2,"Clc1cccc(-n2cc(C3=NCCS3)cn2)c1Cl [Compound 2l, 2-(1-(2,3-dichlorophenyl)-1H-pyrazol-4-yl)-4,5-dihydrothiazole]",3.44
3,"COc1ccc(-n2ncc(C3=NCCS3)c2N)cc1 [Compound 1k, 2-(5-amino-1-(4-methoxyphenyl)-1H-pyrazol-4-yl)-4,5-dihydrothiazole]",>39.9
4,"COc1ccc(-n2cc(C3=NCCS3)cn2)cc1 [Compound 2k, 2-(1-(4-methoxyphenyl)-1H-pyrazol-4-yl)-4,5-dihydrothiazole]",36.1

# Test system: T. cruzi (Dm28c-Luc) intracellular amastigotes
# Test: Trypanocidal activity against intracellular amastigotes in infected Vero cell monolayers
# Assay type: cell-based, Trypanosoma cruzi
# Conditions: Dm28c-Luc in Vero cells, 72 h, mean ± SD; read-out: Trypanocidal Activity Intracellular Amastigotes IC50
# Experimental: The susceptibility of intracellular amastigotes to pyrazole-thiazoline derivatives (series 1 and 2) was evaluated using 24 h T. cruzi-infected Vero cell monolayers (10:1 parasite/host cell ratio). Then, the cultures were washed with PBS to remove non-internalized parasites, and 200 μL of fresh medium with a serial dilution of pyrazole-thiazoline derivatives and Bz (0.41–100 µM) was added for 72 h at 37 °C.
# as §1
row,Compound,IC50 [µM]
1,"Fc1cccc(-n2cc(C3=NCCS3)cn2)c1 [Compound 2h, 2-(1-(3-fluorophenyl)-1H-pyrazol-4-yl)-4,5-dihydrothiazole]",9.1 ± 1.7

# Same assay, conditions: Trypanosoma cruzi, Vero, 72 h, Dm28c-Luc in Vero cells, 72 h, mean ± SD; read-out: Trypanocidal Activity Intracellular Amastigotes IC50
row,Compound,IC50 [µM]
1,"Fc1cccc(-n2cc(C3=NCCS3)cn2)c1 [Compound 2h, 2-(1-(3-fluorophenyl)-1H-pyrazol-4-yl)-4,5-dihydrothiazole]",< 10
2,"Clc1cccc(-n2cc(C3=NCCS3)cn2)c1Cl [Compound 2l, 2-(1-(2,3-dichlorophenyl)-1H-pyrazol-4-yl)-4,5-dihydrothiazole]",25.3 ± 2.4
3,"COc1ccc(-n2ncc(C3=NCCS3)c2N)cc1 [Compound 1k, 2-(5-amino-1-(4-methoxyphenyl)-1H-pyrazol-4-yl)-4,5-dihydrothiazole]",79.1 ± 4.4
4,"COc1ccc(-n2cc(C3=NCCS3)cn2)cc1 [Compound 2k, 2-(1-(4-methoxyphenyl)-1H-pyrazol-4-yl)-4,5-dihydrothiazole]",22.4 ± 2.8

# Same assay, conditions: Trypanosoma cruzi, Vero, pIC50 = −log IC50, Dm28c-Luc clone; read-out: Intracellular Amastigotes pIC50 (converted)
row,Compound,IC50 [µM]
1,"Fc1cccc(-n2cc(C3=NCCS3)cn2)c1 [Compound 2h, 2-(1-(3-fluorophenyl)-1H-pyrazol-4-yl)-4,5-dihydrothiazole]",~10
2,"Clc1cccc(-n2cc(C3=NCCS3)cn2)c1Cl [Compound 2l, 2-(1-(2,3-dichlorophenyl)-1H-pyrazol-4-yl)-4,5-dihydrothiazole]",25.7
3,"COc1ccc(-n2ncc(C3=NCCS3)c2N)cc1 [Compound 1k, 2-(5-amino-1-(4-methoxyphenyl)-1H-pyrazol-4-yl)-4,5-dihydrothiazole]",79.4
4,"COc1ccc(-n2cc(C3=NCCS3)cn2)cc1 [Compound 2k, 2-(1-(4-methoxyphenyl)-1H-pyrazol-4-yl)-4,5-dihydrothiazole]",22.9

# Same assay, conditions: Trypanosoma cruzi; Dm28c-Luc in Vero cells, 72 h, mean ± SD; read-out: Trypanocidal Activity Intracellular Amastigotes IC90
row,Compound,IC90 [µM]
1,"Fc1cccc(-n2cc(C3=NCCS3)cn2)c1 [Compound 2h, 2-(1-(3-fluorophenyl)-1H-pyrazol-4-yl)-4,5-dihydrothiazole]",76.3 ± 6.1
2,"Clc1cccc(-n2cc(C3=NCCS3)cn2)c1Cl [Compound 2l, 2-(1-(2,3-dichlorophenyl)-1H-pyrazol-4-yl)-4,5-dihydrothiazole]",75.5 ± 8.3
3,"COc1ccc(-n2ncc(C3=NCCS3)c2N)cc1 [Compound 1k, 2-(5-amino-1-(4-methoxyphenyl)-1H-pyrazol-4-yl)-4,5-dihydrothiazole]",97.3 ± 4.7
4,"COc1ccc(-n2cc(C3=NCCS3)cn2)cc1 [Compound 2k, 2-(1-(4-methoxyphenyl)-1H-pyrazol-4-yl)-4,5-dihydrothiazole]",53 ± 9.8

# Same assay, conditions: selectivity index vs Vero cells
row,Compound,Intracellular Amastigotes SI (CC50 of Vero cells/IC50)
1,"Fc1cccc(-n2cc(C3=NCCS3)cn2)c1 [Compound 2h, 2-(1-(3-fluorophenyl)-1H-pyrazol-4-yl)-4,5-dihydrothiazole]",4.19
2,"Clc1cccc(-n2cc(C3=NCCS3)cn2)c1Cl [Compound 2l, 2-(1-(2,3-dichlorophenyl)-1H-pyrazol-4-yl)-4,5-dihydrothiazole]",3.5
3,"COc1ccc(-n2ncc(C3=NCCS3)c2N)cc1 [Compound 1k, 2-(5-amino-1-(4-methoxyphenyl)-1H-pyrazol-4-yl)-4,5-dihydrothiazole]",>6.3
4,"COc1ccc(-n2cc(C3=NCCS3)cn2)cc1 [Compound 2k, 2-(1-(4-methoxyphenyl)-1H-pyrazol-4-yl)-4,5-dihydrothiazole]",4.9

# Test system: not listed separately
# Test: Cytotoxicity in vitro assay (CellTiter-Glo)
# Assay type: cell-based
# Conditions: African green monkey, Vero cells, mean ± SD
# Experimental: Vero cells, obtained from the Rio de Janeiro Cell Bank (BCRJ code 0245), were dissociated with trypsin–EDTA solution (0.025%), and maintained in RPMI 1640 medium supplemented with 10% fetal bovine serum (FBS) at 37 °C in a humidified atmosphere of 5% CO2.
# The compound toxicity was evaluated in Vero cell cultures. Briefly, Vero cells were seeded in 96-well white culture plates at a density of 1.5 × 10^4 cells/well for 24 h at 37 °C and 5% CO2. Thereafter, the cell monolayers were washed with phosphate-buffered saline (PBS) and 200 μL of fresh medium with a serial dilution of the pyrazole-thiazoline derivatives and Bz (1.9–500 µM) added. The cell viability was determined by luminescent assay using the CellTiter-Glo Kit (Promega Corporation, Madison, WI, USA) based on the ATP level. After 72 h of treatment, 20 μL of CellTiter-Glo solution was added per well, and cultures were kept for 2 min under agitation. The luminescent signal was read on the GloMax reader (Promega Corporation, Madison, WI, USA). The concentration of compounds that reduced 50% of cell viability (CC50) was calculated by linear regression. At least three independent assays were performed in duplicate.
row,Compound,CC50 at 72 h [µM]
1,"Fc1cccc(-n2cc(C3=NCCS3)cn2)c1 [Compound 2h, 2-(1-(3-fluorophenyl)-1H-pyrazol-4-yl)-4,5-dihydrothiazole]",37.9 ± 4.8
2,"Clc1cccc(-n2cc(C3=NCCS3)cn2)c1Cl [Compound 2l, 2-(1-(2,3-dichlorophenyl)-1H-pyrazol-4-yl)-4,5-dihydrothiazole]",88.7 ± 9.3
3,"COc1ccc(-n2ncc(C3=NCCS3)c2N)cc1 [Compound 1k, 2-(5-amino-1-(4-methoxyphenyl)-1H-pyrazol-4-yl)-4,5-dihydrothiazole]",> 500
4,"COc1ccc(-n2cc(C3=NCCS3)cn2)cc1 [Compound 2k, 2-(1-(4-methoxyphenyl)-1H-pyrazol-4-yl)-4,5-dihydrothiazole]",110 ± 9.4

# Test system: not given
# Test: not given
# Conditions: not given
row,Compound,melting point [°C]
1,"Fc1cccc(-n2cc(C3=NCCS3)cn2)c1 [Compound 2h, 2-(1-(3-fluorophenyl)-1H-pyrazol-4-yl)-4,5-dihydrothiazole]",92 to 94
2,"Clc1cccc(-n2cc(C3=NCCS3)cn2)c1Cl [Compound 2l, 2-(1-(2,3-dichlorophenyl)-1H-pyrazol-4-yl)-4,5-dihydrothiazole]",112 to 114
3,"COc1ccc(-n2ncc(C3=NCCS3)c2N)cc1 [Compound 1k, 2-(5-amino-1-(4-methoxyphenyl)-1H-pyrazol-4-yl)-4,5-dihydrothiazole]",164 to 166
4,"COc1ccc(-n2cc(C3=NCCS3)cn2)cc1 [Compound 2k, 2-(1-(4-methoxyphenyl)-1H-pyrazol-4-yl)-4,5-dihydrothiazole]",114 to 116
